ChEMBL document CHEMBL1131515, “2-Substituted-4-methoxybenzimidazole-based PDE4 inhibitors” (Bioorg Med Chem Lett, 1998)

Legend:
[1] = Inhibition of Rolipram binding to PDE4
[2] = target: Phosphodiesterase 4 (Cavia porcellus); assay: Inhibition of PDE4 from guinea pig macrophages
Rattus norvegicus [3] = organism: Rattus norvegicus; assay: Inhibition of streptococcal cell wall(SCW) induced arthritis in rat; type: functional
[4] = Bioavailability in mouse; type: ADME, organism-based; conditions: in vivo
Mus musculus = organism: Mus musculus; assay: Inhibition of lipopolysaccharide (LPS) stimulated TNF-alpha release in mice after peroral dose; type: functional; conditions: po
Phosphodiesterase 4 = Phosphodiesterase 4 (Homo sapiens, UniProt P27815+Q08499+Q07343+Q08493); assay: Inhibition of Phosphodiesterase 4 (PDE4) from guinea pig macrophages; type: protein assay, Cavia porcellus; conditions: target entry is the homologue from another species
[5] = target: Phosphodiesterase 4 (Cavia porcellus); assay: Inhibition of Phosphodiesterase 4 (PDE4) from guinea pig macrophages
Rattus norvegicus [6] = organism: Rattus norvegicus; assay: Inhibition of streptococcal cell wall(SCW) induced arthritis in rat on peroral dose; type: functional; conditions: po
[7] = Compound was evaluated for its bioavailability in mice at a dose of 1 mg/kg; type: ADME, organism-based; conditions: mouse, in vivo
[8] = Rapid plasma clearance of compound was determined; type: ADME

Ki [1]	IC50 [2]	SMILES	also measured
10000 nM	4400 nM	COc1ccc(C(=O)Nc2c(Cl)cncc2Cl)c2nc(C3CCCC3)n(C)c12	–
712 nM	450 nM	COc1ccc(C(=O)Nc2c(Cl)cncc2Cl)c2[nH]c(C)nc12	–
540 nM	100 nM	COc1ccc(C(=O)Nc2c(Cl)cncc2Cl)c2[nH]c(C3CCCC3)nc12	–
45 nM	–	COCc1nc2c(OC)ccc(C(=O)Nc3c(Cl)c[n+]([O-])cc3Cl)c2[nH]1	IC50 [5]: 45 nM; ED50 (Rattus norvegicus [6]): 5 mg/kg; ED50 (Mus musculus): 7 mg/kg; bioavailability [7]: 87%; half-life [8]: 2.5 h
24 nM	27 nM	COc1ccc(C(=O)Nc2c(Cl)cncc2Cl)c2[nH]c(C(C)C)nc12	bioavailability [4]: 16%; ED50 (Mus musculus): 10 mg/kg
1 nM	2 nM	COc1ccc(C(=O)Nc2c(Cl)cncc2Cl)c2[nH]c(C3CC3)nc12	–
56 nM	23 nM	COc1ccc(C(=O)Nc2c(Cl)cncc2Cl)c2[nH]c(CCc3ccccc3)nc12	–

Second part, the molecule before the results:

SMILES	Ki [1]	IC50 [2]	also measured
COc1ccc(C(=O)Nc2c(Cl)cncc2Cl)c2c1nc(C1CCCC1)n2C	340 nM	540 nM	–
COCc1nc2c(OC)ccc(C(=O)Nc3c(Cl)cncc3Cl)c2[nH]1	25 nM	–	ED50 (Rattus norvegicus [3]): 10 mg/kg; bioavailability [4]: 35%; ED50 (Mus musculus): 2 mg/kg
OCCN(CCO)c1nc(N2CCCCC2)c2nc(N(CCO)CCO)nc(N3CCCCC3)c2n1 [DIPYRIDAMOLE]	–	–	IC50 (Phosphodiesterase 4): 500 nM
COc1ccc(C(=O)Nc2c(Cl)c[n+]([O-])cc2Cl)c2[nH]c(C(C)C)nc12	24 nM	–	IC50 [5]: 28 nM
COc1ccc(C(=O)Nc2c(Cl)cncc2Cl)cc1OC1CCCC1	1 nM	–	bioavailability [4]: < 5%
COc1ccc(C(=O)Nc2c(Cl)cncc2Cl)c2[nH]c(Cc3ccccc3)nc12	75 nM	25 nM	–
